According to patent publication US20230278972A1, “SUBSTITUTED HALOALKYL SULFONANILIDE HERBICIDES” (FMC Corporation, priority 2020, published 2023):

Assays:
Format in all cases: in vivo
[1] = system: wheat (Triticum aestivum); assay: Test A1 postemergence, wheat; details: for Plant response rating, Wheat: Postemergence; for Wheat plant response rating: postemergence
Method in brief: (§1)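 Test compounds were formulated in a non-phytotoxic solvent mixture containing a surfactant. For preemergence, seeds sown in a loam soil–sand blend received a directed soil spray. For postemergence, potted plants in the same soil, 2 to 10 cm tall at the one- to two-leaf stage, were sprayed.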

[2] = system: soybean (Glycine max); assay: Test A1 preemergence, soybean
Method in brief: (§2)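 Pre: seeds in loam/sand blend, directed soil spray. Post: potted plants, same soil, 2–10 cm, 1–2 leaf stage. Chemicals in non-phytotoxic solvent + surfactant for both.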

[3] = system: soybean (Glycine max); assay: Test A1 postemergence, soybean; details: for Plant response rating, Soybean: Postemergence; for Soybean plant response rating: postemergence
Method in brief: as §1

[4] = system: corn (Zea mays); assay: Test A1 preemergence, corn
Method in brief: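 Postemergence species (ragweed, Palmer pigweed, wild oat) were sprayed at one- to two-leaf stage, 2 to 10 cm tall. Corn was treated preemergence by directed soil spray. Both used a loam soil/sand blend and compounds in a non-phytotoxic solvent mixture with surfactant.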

[5] = system: wheat (Triticum aestivum); assay: Test A1 preemergence, wheat
Method in brief: as §2

[6] = system: Oat, Wild (wild oat, Avena fatua); assay: Test A1 preemergence, Oat, Wild
Method in brief: as §2

[7] = system: corn (Zea mays); assay: Test A1 postemergence, corn; details: Postemergence
Method in brief: as §2

[8] = system: horseweed (Erigeron canadensis); assay: Test A1 postemergence, horseweed; details: for Plant response rating, Horseweed: Postemergence
Method in brief: as §1

[9] = system: ducksalad (Heteranthera limosa); assay: Test B1 flooded paddy test, ducksalad; details: 250 g ai/ha, Flood, applied to paddy water, 2-leaf stage, visually evaluated after 10 to 14 days
Text: A dash (-) response means no test result.

[10] = 31 g ai/ha, 0 to 100 scale (0 no effect, 100 complete control), 10 days
[11] = 31 g ai/ha, 0 to 100 scale (0 no effect, 100 complete control)
[12] = 125 g ai/ha, 0 to 100 scale, 0 no effect, 100 complete control

Row | SMILES | Plant response rating, Wheat [1, 10] | Plant response rating, Wheat ([1]; 125 g ai/ha, 0 to 100 scale) | Plant response rating, Soybean [2, 11] | Plant response rating, Soybean [2, 12] | Plant response rating, Soybean [3, 10] | Plant response rating, Soybean ([3]; 125 g ai/ha, 0 to 100 scale) | Plant response rating, Corn [4, 11] | Plant response rating, Corn [4, 12] | Plant response rating, Wheat [5, 11] | Plant response rating, Wheat [5, 12] | Plant response rating, Oat, Wild [6, 11] | Plant response rating, Oat, Wild [6, 12] | Plant response rating, Corn [7, 10] | Plant response rating, Corn ([7]; 125 g ai/ha, 0 to 100 scale) | Plant response rating, Horseweed [8, 10] | Plant response rating, Horseweed ([8]; 125 g ai/ha, 0 to 100 scale) | Plant response rating, Ducksalad (0 to 100 scale, 0 is no effect, 100 is complete control) [9] | Wheat plant response rating [1, 11] | Soybean plant response rating [3, 11] | Horseweed plant response rating ([8]; 31 g ai/ha, postemergence, 0 to 100 scale (0 no effect, 100 complete control))
1 | Cc1c(C(=O)N2CCC(F)(F)CC2)cc(N(COC(=O)C(C)(C)C)S(=O)(=O)C(F)(F)F)c(C)c1C [Compound 360] | 0 | 0 | 0 | 0 | 20 | 40 | 0 | 0 | 0 | 10 | 0 | 0 | 0 | 0 | 10 | 70 | 65 |  |  | 
2 | Cc1cc(C)c(C2=NOC3OCCC23)cc1NS(=O)(=O)C(F)(F)F (centres unmarked) [Compound 349] | 30 | 70 | 20 | 60 | 30 | 70 | 20 | 100 | 20 | 70 | 10 | 50 | 40 | 90 | 90 | 100 | 80 |  |  | 
3 | Cc1cc(C)c(N(COC(=O)C(C)(C)C)S(=O)(=O)C(F)(F)F)cc1C1=NOC2COCC12 (centres unmarked) [Compound 301] | 0 | 60 | 0 | 20 | 10 | 40 | 0 | 10 | 0 | 40 | 0 | 0 | 0 | 30 | 50 | 80 | 50 |  |  | 
4 | Cc1c(NS(=O)(=O)C(F)(F)F)cc(C(=O)N2CCC(F)(F)CC2)c(C)c1C [Compound 357] | 0 | 0 | 0 | 20 | 40 | 90 | 10 | 90 | 0 | 10 | 0 | 0 | 0 | 0 | 20 | 80 | 60 |  |  | 
5 | COc1cc(C)c(NS(=O)(=O)C(F)(F)F)cc1C1=NOC2CCCC12 (centres unmarked) [Compound 312] | 0 | 0 | 0 | 50 | 20 | 20 | 0 | 10 | 0 | 0 | 0 | 0 | 0 | 0 | 0 | 20 | 0 |  |  | 
6 | CCOC(=O)N(c1cc(C(=O)N2CCC(c3ccccc3)CC2)c(C)cc1C)S(=O)(=O)C(F)(F)F [Compound 365] | 0 | 20 | 0 | 0 | 0 | 60 | 0 | 0 | 0 | 0 | 0 | 0 | 0 | 0 | 10 | 20 | 25 |  |  | 
7 | CCOC(=O)N(c1cc(C(=O)N2CCOCC2)c(C)c(C)c1C)S(=O)(=O)C(F)(F)F [Compound 325] | 30 | 50 | 0 | 60 | 50 | 80 | 0 | 40 | 20 | 60 | 0 | 70 | 10 | 30 | 90 | 90 | 95 |  |  | 
8 | COc1cc(C)c(C2=NOC3(CCCC3)C2)cc1NS(=O)(=O)C(F)(F)F [Compound 304] | 0 | 20 | 0 | 0 | 20 | 50 | 0 | 0 | 0 | 20 | 50 | 0 | 0 | 20 | 0 | 0 | 0 |  |  | 
9 | Cc1c(C(=O)N2CCC(Cl)CC2)cc(N(COC(=O)C(C)(C)C)S(=O)(=O)C(F)(F)F)c(C)c1C [Compound 359] | 0 | 30 | 0 | 30 | 50 | 60 | 0 | 0 | 0 | 0 | 0 | 0 | 0 | 0 | 50 | 80 | 25 |  |  | 
10 | CCC1CC(c2cc(N(COC(=O)C(C)(C)C)S(=O)(=O)C(F)(F)F)c(C)cc2C)=NO1 (centres unmarked) [Compound 376] |  | 40 | 0 | 0 |  | 100 | 0 | 0 | 0 | 20 | 0 | 10 | 0 | 0 |  | 0 | 70 | 10 | 20 | 0
11 | Cc1c(C(=O)N2CCCCC2)cc(NS(=O)(=O)C(F)(F)F)c(Cl)c1F [Compound 333] | 0 | 30 | 40 | 60 | 30 | 80 | 0 | 0 | 0 | 50 | 20 | 40 | 0 | 0 | 0 | 30 | 70 |  |  | 
12 | CCOC(=O)N(c1cc(C(=O)N2CCCCC2)c(C)c(C)c1C)S(=O)(=O)C(F)(F)F [Compound 330, Ethyl N-[(trifluoromethyl)sulfonyl]-N-[2,3,4-trimethyl-5-(1-piperidinylcarbonyl)phenyl]carbamate] | 0 | 30 | 0 | 30 | 90 | 80 | 0 | 0 | 0 | 30 | 0 | 20 | 0 | 10 | 80 | 90 | 95 |  |  | 
13 | COC(=O)OCN(c1cc(C2=NOC3CCCC23)c(C)cc1C)S(=O)(=O)C(F)(F)F (centres unmarked) [Compound 315] | 30 | 70 | 40 | 50 | 40 | 60 | 10 | 20 | 20 | 70 | 0 | 20 | 20 | 20 | 20 | 60 | 90 |  |  | 
14 | Cc1c(C(=O)N2CCC(C)CC2)cc(N(COC(=O)C(C)(C)C)S(=O)(=O)C(F)(F)F)c(C)c1C [Compound 369] |  | 20 | 0 | 30 |  | 90 | 0 | 0 | 0 | 0 | 0 | 20 | 0 | 50 |  |  | 65 | 0 | 20 | 
